Entries after “also recorded” stand apart in the source; their conditions may differ. *1 amine or outer side, *2 acyl side, *3 side chain or, on linkers, in order; H or OH if unused. Where a SMILES comes first, the peptide text is derived from it. Bridges are numbered along the chain shown (N, C = ends). [ ]: non-standard residue; d: D form. Adda = CO[C@@H](Cc1ccccc1)[C@@H](C)/C=C(C)/C=C/[C@H](N[*:1])[C@H](C)C(=O)[*:2]; dAsp(3S-Me) = C[C@H](C(=O)[*:3])[C@@H](N[*:1])C(=O)[*:2]; d(γGlu) = O=C(O)[C@@H](CCC(=O)[*:2])N[*:1]; NMeDha = C=C(NC)C(=O)O
Tests used:
[1] = system: Jurkat cells; test: O2 consumption toxicity assay in Jurkat cells, with and without transport reagent; format: cell-based
[2] = system: HepG2 cells; test: O2 consumption toxicity assay in HepG2 cells, with and without transport reagent; format: cell-based
[3] = system: isolated rat liver mitochondria; format: biochemical
[4] = system: cells; format: cell-based
[5] = system: HepG2 cells; test: Western blot of protein phosphorylation (anti-phospho-serine) in HepG2 cells; format: cell-based
Protocol: FIG. 2. Western blot analysis of HepG2 cells treated with MCLR in the presence of EndoPorter for 24 h, primary antibodies used were anti-phospho-serine. Blot analysis show dependence of protein phosphorylation on MCLR concentration.
A number of other markers of cellular function were also investigated for their alterations in response to MCLR treatment of cells in the presence of transport reagent. […] Metabolic parameters such as intracellular levels of ATP and NAD(P)H were seen unchanged.

[6] = system: Jurkat cells; test: ATP content in Jurkat cells, with and without transport reagent; format: cell-based
From the text: A number of other transport reagents, toxicants, cell models and parameters of cellular function were examined, using the general assay format described in Example 1.

[7] = system: Primary rat hepatocytes; format: cell-based

Aflatoxin B1
O2 consumption / toxicity, observed effect [1]: increased toxicity

C=C1C(=O)N[C@H](C)C(=O)N[C@@H](CC(C)C)C(=O)N[C@@H](C(=O)O)[C@H](C)C(=O)N[C@@H](CCCNC(=N)N)C(=O)N[C@@H](/C=C/C(C)=C/[C@H](C)[C@H](Cc2ccccc2)OC)[C@H](C)C(=O)N[C@@H](C(=O)O)CCC(=O)N1C [MCLR, Microcystin-LR] (R[Adda][d(γGlu)][NMeDha][dA]L[dAsp(3S-Me)]-OH; lactam N-7)
Concentration above which significant effects on O2 consumption were seen [2]: above 0.1 nM
Peak of bell-shape dose response of O2 consumption [2]: around 0.5 nM
Effect on O2 consumption of isolated mitochondria [3]: uncoupling effect
Intracellular level of ATP [4]: unchanged
Intracellular level of NAD(P)H [4]: unchanged
Protein phosphorylation/dephosphorylation in Western blots [5]: altered protein phosphorylation/dephosphorylation
ATP content, observed effect [6]: No effect at 10 μM; also recorded: Dose dependent decrease
Concentration at which parameters of cellular function were affected [7]: ≥ 0.5 nM
O2 consumption, observed effect [7]: dose-dependent decreases in oxygen consumption
IC50 ([7]; read-out: O2 consumption, IC50): 2.74 nM
Concentration above which significant effects on O2 consumption were seen [1]: above 0.1 nM
O2 consumption / toxicity, observed effect [1]: strong toxicity; also recorded: respiration decreased
O2 consumption, observed effect [1]: no detectable toxicity; also recorded: No effect at 10 μM
